Source: US20230348450A1, “CARBOXYLIC ACID-CONTAINING COMPOUNDS AS MODULATORS OF BIS-PHOSPHOGLYCERATE MUTASE FOR THE TREATMENT OF SICKLE CELL DISEASE” (Genzyme Corporation, priority 2020, published 2023)

What was measured:
[1] = molecular target: human Bisphosphoglycerate mutase (hBPGM) (Homo sapiens (Human), UniProt P07738); assay: BPGM Phosphatase Assay; assay type: biochemical; conditions: Table 6 additional results; read-out: huBPGM: phosphatase Enzyme EC50
Experimental: Solutions of the test compounds were then added to the plate and the DMSO content was normalized across the plate. The plate was incubated at RT for 15 min. Next, the substrate 2,3-BPG (5 μL) was added to all the wells, and the plate was sealed and incubated for 24 hr at RT. After incubation, BIOMOL green dye (40 μL) was added to all the wells, the plate was shaken to mix, and the plate was incubated at RT for 20-30 min.

hBPGM = hBPGM (Homo sapiens (Human), UniProt P07738); assay: BPGM Synthase Assay; assay type: biochemical; conditions: Table 6 additional results; read-out: huBPGM: synthase Enzyme IC50
In short: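 BPGM (5 nM) with GAPDH (0.4 U/mL) was incubated with compound for 30 min at RT in pH 7.4 Tris buffer with 3.23 mM KH2PO4 and 1 mM DTT. Reaction ran 60 min with NAD, 3PG and GAP (substrate solution 2 mM, 20 μM and 800 μM). After koningic acid stop, NADH fluorescence was read, then resorufin from diaphorase/resazurin coupling.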

Sequence of human Bisphosphoglycerate mutase (hBPGM) (P07738 whole entry): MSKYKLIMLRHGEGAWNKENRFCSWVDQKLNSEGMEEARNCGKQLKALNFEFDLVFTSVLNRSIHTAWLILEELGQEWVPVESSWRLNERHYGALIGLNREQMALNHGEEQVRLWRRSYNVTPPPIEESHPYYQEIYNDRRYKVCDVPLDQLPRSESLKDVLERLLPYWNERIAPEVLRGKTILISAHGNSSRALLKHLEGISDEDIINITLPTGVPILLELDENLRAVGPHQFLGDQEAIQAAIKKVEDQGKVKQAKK
Sequence of hBPGM (P07738 whole entry, looked up): as the sequence (P07738 whole entry) above

Compound | EC50 [1] | IC50 (hBPGM)
Cc1nc(CN2CCCC2=O)sc1-c1cccc(-c2ccc(C(=O)O)c(O)c2)c1 [Example 260] | 5.6 µM | 1.4 µM
COC(=O)NCc1nc(C)c(-c2csc(-c3ccc(C(=O)NS(=O)(=O)c4ccc(OCC(=O)O)cc4)cc3)n2)s1 [Example 66] | 0.11 µM | 0.061 µM
COC(=O)NCc1nc(C)c(-c2csc(-c3ccc(C(=O)O)c(O)c3)n2)s1 [Example 213] | 0.14 µM | 0.13 µM
Cc1nc(COc2ccnn2C)sc1-c1csc(-c2cc(O)c(C(=O)O)cc2F)n1 [Example 218] | 0.17 µM | 0.13 µM
Cc1nc(C)c(-c2csc(-c3ccc(C(=O)O)c(O)c3)n2)s1 [Example 184] | 0.08 µM | 1.5 µM
Cc1nc(CNC(=O)OCC(F)(F)F)sc1-c1csc(-c2cc(O)c(C(=O)O)cc2F)n1 [Example 136] | 0.09 µM | 0.31 µM
Cc1nc(Cc2ccccc2)sc1-c1csc(-c2cc(O)c(C(=O)O)cc2F)n1 [Example 165] | 0.04 µM | 0.24 µM
Cc1nc(COc2cccc(C#N)c2)sc1-c1cccc(-c2ccc(C(=O)O)c(O)c2)c1 [Example 108] | 0.5 µM | 3.2 µM
Cc1nc(COc2ncccn2)sc1-c1csc(-c2cc(O)c(C(=O)O)cc2F)n1 [Example 137] | 0.02 µM | 0.028 µM
Cc1nc(COc2ncccn2)sc1-c1cccc(-c2ccc(C(=O)O)s2)n1 [Example 88] | 12 µM | 1 µM
COC(=O)NCc1nc(C)c(-c2nsc(-c3ccc(C(=O)O)c(O)c3)n2)s1 [Example 193] | 0.36 µM | 0.17 µM
COCCNCc1nc(C)c(-c2csc(-c3cc(O)c(C(=O)O)cc3F)n2)s1 [Example 175] | 0.32 µM | 0.52 µM
Cc1nc(Cn2cccnc2=O)sc1-c1csc(-c2cc(O)c(C(=O)O)cc2F)n1 [Example 181] | 0.08 µM | 0.21 µM
Cc1nc(COc2cccc(C#N)n2)sc1-c1cccc(-c2ccc(C(=O)O)c(O)c2)c1 [Example 256] | 0.07 µM | 0.88 µM
Cc1ccc(Cc2nc(C)c(-c3csc(-c4cc(O)c(C(=O)O)cc4F)c3)s2)cn1 [Example 98] | 0.1 µM | 0.17 µM
Cc1nc(Cn2cccn2)sc1-c1cccc(-c2cc(O)c(C(=O)O)cc2F)n1 [Example 223] | 0.19 µM | 0.15 µM
Cc1nc(COc2ccccn2)sc1-c1csc(-c2cc(O)c(C(=O)O)cc2F)n1 [Example 163] | 0.06 µM | 0.17 µM
Cc1nc(N)sc1-c1csc(-c2cc(O)c(C(=O)O)cc2F)n1 [Example 210] | 0.83 µM | 0.93 µM
Cc1nc(CNC(=O)c2ccccc2)sc1-c1csc(-c2cc(O)c(C(=O)O)cc2F)n1 [Example 212] | 0.1 µM | 0.16 µM
COC(=O)NCc1nc(C)c(-c2csc(-c3ccc(C(=O)O)cc3F)n2)s1 [Example 238] | > 25 µM | 1.3 µM
COCCOCCOCCOCc1nc(C)c(-c2csc(-c3ccc(C(=O)O)cc3)n2)s1 [Example 270] | > 25 µM | 4.6 µM
Cc1ccc(OCc2nc(C)c(-c3cccc(-c4ccc(C(=O)O)c(O)c4)c3)s2)nc1 [Example 82] | 0.21 µM | 1.1 µM
Cc1nc(COc2ncccn2)sc1-c1cccc(-c2cc(O)c(C(=O)O)cc2F)n1 [Example 129] | 0.04 µM | 0.04 µM
Cc1nc(CNC(=O)C(C)(C)C)sc1-c1csc(-c2cc(O)c(C(=O)O)cc2F)c1 [Example 139] | 0.09 µM | 0.084 µM
Cc1nc(CNC(=O)C2CCN(C)CC2)sc1-c1csc(-c2cc(O)c(C(=O)O)cc2F)n1 [Example 126] | 0.24 µM | 0.46 µM
Cc1nc(COc2ncccn2)sc1-c1cccc(-c2ccc(C(=O)O)cc2F)n1 [Example 83] | 1.4 µM | 0.36 µM
Cc1nc(COc2ccccn2)sc1-c1cccc(-c2cc(O)c(C(=O)O)cc2F)n1 [Example 164] | 0.07 µM | 0.17 µM

Compound | EC50 [1] | IC50 (hBPGM)
Cc1nc(CNC(=O)C(C)CN(C)C)sc1-c1csc(-c2cc(O)c(C(=O)O)cc2F)n1 (stereo not drawn) [Example 117] | 8.7 µM | 0.17 µM
Cc1nc(NCC(=O)N(C)C)sc1-c1csc(-c2cc(O)c(C(=O)O)cc2F)n1 [Example 178] | 3.1 µM | 0.2 µM
Cc1nc(C)c(-c2cccc(-c3cc(O)c(C(=O)O)cc3F)n2)s1 [Example 259] | > 25 µM | 0.57 µM
COC(=O)NCc1nc(C)c(-c2ccnc(-c3ccc(C(=O)O)c(O)c3)n2)s1 [Example 185] | 0.03 µM | 0.16 µM
CC(=O)Nc1cccc(OCc2nc(C)c(-c3csc(-c4cc(O)c(C(=O)O)cc4F)n3)s2)n1 [Example 145] | 0.05 µM | 0.25 µM
Cc1nc(COC(=O)N(C)CCN(C)C)sc1-c1csc(-c2cc(O)c(C(=O)O)cc2F)n1 [Example 113] | 0.17 µM | 0.13 µM
Cc1nc(CNC2CCCOC2)sc1-c1cccc(-c2ccc(C(=O)O)cc2)c1 (stereo not drawn) [Example 52] | > 25 µM | 16 µM
Cc1nc(CNC(=O)C2CC2)sc1-c1csc(-c2cc(O)c(C(=O)O)cc2F)c1 [Example 233] | 0.11 µM | 0.078 µM
CC(=O)Nc1nc(C)c(-c2csc(-c3cc(O)c(C(=O)O)cc3F)n2)s1 [Example 194] | 0.14 µM | 0.25 µM
Cc1nc(Cn2cccc(C#N)c2=O)sc1-c1cccc(-c2ccc(C(=O)O)c(O)c2)c1 [Example 100] | 0.42 µM | 0.56 µM
Cc1nc(COc2cc(C(F)(F)F)nn2C)sc1-c1cccc(-c2ccc(C(=O)O)cc2)n1 [Example 65] | > 25 µM | 2.6 µM
Cc1nc(Cc2ccn(C)n2)sc1-c1csc(-c2cc(O)c(C(=O)O)cc2F)n1 [Example 160] | 0.13 µM | 0.065 µM
Cc1nc(CNC(=O)C(C)(C)C)sc1-c1cccc(-c2ccc(C(=O)O)c(O)c2)c1 [Example 81] | 1.1 µM | 0.45 µM
Cc1ccnc(OCc2nc(C)c(-c3csc(-c4cc(O)c(C(=O)O)cc4F)n3)s2)n1 [Example 133] | 0.08 µM | 0.05 µM
Cc1nc(COc2ncccn2)sc1-c1cccc(-c2ccc(C(=O)O)c(C#N)c2)n1 [Example 78] | 0.07 µM | 0.18 µM
COC(=O)NCc1nc(C)c(-c2cccc(-c3cc(O)c(C(=O)O)cc3F)n2)s1 [Example 235] | 0.14 µM | 0.11 µM
Cc1cccnc1OCc1nc(C)c(-c2cccc(-c3ccc(C(=O)O)c(O)c3)c2)s1 [Example 86] | 0.2 µM | 1.5 µM
COC(=O)NCc1nc(C)c(-c2csc(-c3cc(O)c(CC(=O)O)cc3F)n2)s1 [Example 116] | > 25 µM | 6.9 µM
Cc1nc(COc2ccc(C#N)cn2)sc1-c1cccc(-c2ccc(C(=O)O)c(O)c2)c1 [Example 93] | 0.27 µM | 3.3 µM
Cc1nc(CNC(=O)c2ncccn2)sc1-c1csc(-c2cc(O)c(C(=O)O)cc2F)n1 [Example 192] | 0.12 µM | 0.049 µM
Cc1nc(CNC(=O)c2cc[nH]n2)sc1-c1csc(-c2cc(O)c(C(=O)O)cc2F)n1 [Example 172] | 0.04 µM | 0.04 µM
Cc1nc(COc2ncccn2)sc1-c1cccc(-c2c[nH]c(C(=O)O)c2)n1 [Example 76] | > 25 µM | 3.5 µM
Cc1cccc(Cc2nc(C)c(-c3cccc(-c4ccc(C(=O)O)c(O)c4)c3)s2)n1 [Example 279] | 6.9 µM | 2.6 µM
Cc1nc(CN)sc1-c1csc(-c2ccc(C(=O)O)c(O)c2)c1 [Example 244] | > 25 µM | 0.84 µM
Cc1nc(CNC(=O)c2cccnn2)sc1-c1cccc(-c2cc(O)c(C(=O)O)cc2F)n1 [Example 153] | 0.07 µM | 0.099 µM
Cc1nc(Cc2ccn(C)n2)sc1-c1cccc(-c2ccc(C(=O)O)c(O)c2)c1 [Example 253] | 0.15 µM | 0.19 µM
Cc1nc(COCC(N)=O)sc1-c1csc(-c2cc(O)c(C(=O)O)cc2F)n1 [Example 156] | 1.5 µM | 0.35 µM
